According to paper PMC13184981, “Discovery and Development of a Potent LIMK2 Isoform-Specific Degrader” (ACS Chemical Biology, 2026):

Key:
phospho-Cofilin (pCFL) = experiment: Western blot of phospho-cofilin in HuCCT1 cells; type: cell-based, human; details: HuCCT1, 6 h
Protocol: HuCCT1 cell line was cultured in Roswell Park Memorial Institute (RPMI) 1640 medium supplemented with GlutaMAX, 10% fetal bovine serum (FBS), and 1% penicillin/streptomycin. The cell line was maintained in an incubator with 5% CO2 at 37 °C. For the treatment, 3 × 10^5 cells were plated and treated with the compounds and DMSO as the control for 6 h. The cells were then lysed using RIPA buffer (50 mM Tris-HCl pH 7.4, 150 mM NaCl, 1% Triton X-100, 1% NaDOC, 0.1% SDS, 1 mM EDTA), freshly supplemented with protease and phosphatase inhibitor cocktails (Sigma-Aldrich, Darmstadt, Germany). After 1 h incubation on ice, the lysates were centrifuged for 30 min at […], and the protein-containing supernatant was collected. The protein concentrations were determined using Protein Assay Dye Reagent Concentrate (Bradford, Bio-Rad, Hercules, CA, USA) and Pre-Diluted Protein Assay Standards: Bovine Serum Albumin (BSA) Set (Thermo Fisher Scientific, Darmstadt, Germany). Then, equal amounts of protein was mixed with Roti-Load 1 dye (Carl Roth, Karlsruhe, Germany) and 4x Laemmli Buffer (Bio-Rad, Hercules, CA, USA), denatured at 95 °C, and run on NuPAGE 4–12% bis-Tris gels (Thermo Fisher Scientific). Proteins were blotted on methanol-activated PVDF Transfer Membranes (Thermo Fisher Scientific) using the wet transfer method with the transfer buffer (Thermo Fisher Scientific) and 20% methanol. […]

EGFP–LIMK2 = target: T1, EGFP–LIMK2 (Homo sapiens, UniProt P53671); experiment: EGFP-LIMK2 depletion live-cell assay (Incucyte); type: cell-based
T1 construct: P2A remnant (from EGFP-LIMK2-P2A-mCherry; that residues stay on LIMK2 after self-cleavage is own knowledge) (C); expressed in transfected cells; host or cells: HuCCT1 (lentiviral transduction, doxycycline-inducible pCW57 vector)
Protocol: To enable a more comprehensive and rapid evaluation of the synthesized PROTACs, we generated a stable, doxycycline-inducible HuCCT1 cell line that expressed an N-terminally fused EGFP–LIMK2 protein. […] The degradation activity of the synthesized PROTACs set was screened at five concentrations ranging from 1 nM to 1000 nM over 72 h using live-cell imaging (Figure E).
LIMK2 was cloned into pcDNA5-EGFP-NLS-P2A-mCherry-PTS1 (Addgene plasmid #87803) by replacing the NLS sequence with the LIMK2 sequence. pcDNA5-EGFP-NLS-P2A-mCherry-PTS1 was a gift from Andrea Musacchio. Subsequently, EGFP-[…]-P2A-mCherry was cloned into the lentiviral vector pCW57-MCS1-P2A-MCS2 (Hygro) (Addgene plasmid #80922) to generate pCW57-HygB-EGFP-LIMK2-P2A-mCherry. pCW57-MCS1-P2A-MCS2 (Hygro) was a gift from Adam Karpf.
HEK293T cells (ATCC, CRL-3216) were cultured in Dulbecco’s Modified Eagle’s Medium (DMEM), while HUCCT1 cells (ATCC, CRL-1997) were cultured in RPMI medium supplemented with 10% fetal bovine serum (FBS) and 1% penicillin/streptomycin (P/S) antibiotic mix (all from Sigma-Aldrich, St. Louis, Missouri, USA). Lentiviral particles were produced in HEK293T cells using pCW57-HygB-EGFP-LIMK2-[…]P2A-mCherry, pMD2.G, and psPAX2. HUCCT1 cells were transduced with lentivirus to express LIMK2.
Briefly, the cells were plated and propagated in 6-well plates overnight. The next day, transduction with viruses was performed. Two days later, transduced cells with pCW57-HygB-EGFP-LIMK2-P2A-mCherry plasmids were selected using 100 μg/mL Hygromycin B. After at least three passages, the cells were sorted for the same populations of RFP- and GFP-expressing cells using the SH800S Cell Sorter (Sony Biotechnology, San Jose, CA, USA). Stable pools of cells were maintained in the same medium used for selection.
To assess the turnover of LIMK2, we used the Incucyte S3 or XS5 live-cell imaging system and performed the assay as previously described. , Briefly, 2,000 HUCCT1 cells stably expressing EGFP-LIMK2-P2A-mCherry were seeded per well in a 384-well plate in 50 μL of RPMI medium supplemented with 10% fetal bovine serum (FBS) and 1% penicillin/streptomycin. Cells were incubated for 24 h before treatment. To induce LIMK2 expression, 1 μg/mL of doxycycline (Sigma-Aldrich, D9891–1G) was added at the time of seeding.
After 24 h, 50 μL of medium containing either 0.1% DMSO or the desired concentration of PROTACs was added. Fluorescence in three channels–GFP, RFP, and phase contrast (cell confluence)–was monitored every 2 h for 72 h using the Incucyte S3 or XS5 (Sartorius, Germany). LIMK2 turnover was quantified by calculating the ratio of total fluorescence intensity of RFP to GFP. Each time point represents the average ratio from three technical replicates.

T1 sequence (P53671 whole entry): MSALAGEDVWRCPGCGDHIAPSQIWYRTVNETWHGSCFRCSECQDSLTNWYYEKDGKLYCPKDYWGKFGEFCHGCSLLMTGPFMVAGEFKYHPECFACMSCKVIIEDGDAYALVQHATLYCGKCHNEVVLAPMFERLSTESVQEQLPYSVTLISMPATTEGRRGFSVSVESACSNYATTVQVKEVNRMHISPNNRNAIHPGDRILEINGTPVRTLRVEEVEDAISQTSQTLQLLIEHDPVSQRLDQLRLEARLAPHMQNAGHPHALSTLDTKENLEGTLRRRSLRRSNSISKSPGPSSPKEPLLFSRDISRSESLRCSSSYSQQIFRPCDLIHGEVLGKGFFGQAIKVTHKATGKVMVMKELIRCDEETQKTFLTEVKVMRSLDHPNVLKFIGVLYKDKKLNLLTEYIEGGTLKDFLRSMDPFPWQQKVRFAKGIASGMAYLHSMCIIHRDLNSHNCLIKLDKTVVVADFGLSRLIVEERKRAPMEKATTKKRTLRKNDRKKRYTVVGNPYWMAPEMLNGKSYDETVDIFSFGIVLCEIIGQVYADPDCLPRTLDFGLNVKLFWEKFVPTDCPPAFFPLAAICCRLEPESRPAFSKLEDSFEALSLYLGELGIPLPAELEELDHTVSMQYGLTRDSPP

## Cc1c(OCc2cn(CCCCC(=O)Nc3ncc(-c4cc(C(F)F)nn4-c4c(Cl)cccc4Cl)s3)nn2)cccc1N1CCC(=O)NC1=O [22b]
phospho-Cofilin (pCFL)
  pCFL levels (Western blot): no significant changes in pCFL
EGFP–LIMK2; 10 nM PROTAC
  Dmax: 88.2%
EGFP–LIMK2; 100 nM PROTAC
  Dmax: 97.6%
EGFP–LIMK2; 1000 nM PROTAC
  Dmax: 98.5%
EGFP–LIMK2; EGFP–LIMK2 monitored over 72 h
  time to maximum degradation after PROTAC treatment: approximately 60 h
EGFP–LIMK2; PROTAC 10, 100 and 1000 nM + MLN4924 1 μM
  EGFP–LIMK2 degradation with MLN4924 cotreatment: no LIMK2 degradation
